According to patent publication US10800816B2 (Baxalta GmbH, priority 2012, dated 2020):
pEC50, pKd: −log10 of the molar value. Values after ≈ are worked out from the molar mass of the structure shown. Each block holds one compound with its values, some of them ahead of it. Bridges are numbered along the chain shown (N, C = ends). [ ]: non-standard residue; d: D form. Aib = CC(C)(N)C(=O)O

How the values were obtained:
human TFPI-1 = target: T1, human TFPI-1 (Homo sapiens, UniProt P10646); assay: BIAcore surface plasmon resonance, immobilized human TFPI-1; assay type: binding; conditions: Table 6
T1 construct: human TFPI-1 (residues 29-282 fused at the C-terminus to a 10 His-tag); purchased R&D Systems 2974-PI
T1 sequence (P10646 29-282): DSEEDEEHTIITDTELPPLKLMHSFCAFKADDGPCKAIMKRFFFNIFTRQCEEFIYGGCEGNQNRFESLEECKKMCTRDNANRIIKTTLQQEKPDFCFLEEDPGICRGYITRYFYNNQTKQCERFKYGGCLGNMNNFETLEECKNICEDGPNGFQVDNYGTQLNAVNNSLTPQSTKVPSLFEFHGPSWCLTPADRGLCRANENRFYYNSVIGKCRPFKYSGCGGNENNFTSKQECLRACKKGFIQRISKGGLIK

TFPI [1] = assay: FXa inhibition assay (human TFPI)
cynomolgus TFPI 1-160 = assay: FXa inhibition assay with cynomolgus monkey TFPI 1-160; assay type: biochemical
HUVEC TFPI = target: T2, HUVEC TFPI (Homo sapiens, UniProt P10646); assay: Cell-based extrinsic tenase assay (HUVEC); conditions: relative to 100 nM polyclonal anti-human TFPI antibody = 100%
T2 construct: endogenous in cells; host or cells: HUVEC stimulated with TNFα
T2 sequence (P10646 29-304): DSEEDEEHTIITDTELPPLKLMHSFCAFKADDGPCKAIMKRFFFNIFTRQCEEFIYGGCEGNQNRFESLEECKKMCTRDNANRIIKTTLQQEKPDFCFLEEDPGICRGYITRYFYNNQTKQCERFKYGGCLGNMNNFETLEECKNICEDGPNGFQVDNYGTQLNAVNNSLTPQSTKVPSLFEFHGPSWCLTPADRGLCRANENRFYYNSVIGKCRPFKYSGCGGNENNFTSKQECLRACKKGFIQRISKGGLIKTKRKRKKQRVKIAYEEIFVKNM

[2] = tested on: FVIII-inhibited whole blood; assay: Rotation thromboelastography (ROTEM) in whole blood; parameters: species or system human; conditions: concentrations above 100 nM; 2 nM and 10 nM full length TFPI added
TFPI [3] = target: T3, TFPI (Homo sapiens, UniProt P10646); assay: koff assay; assay type: binding; conditions: 24 hour incubation
T3 sequence (P10646 29-304): T2 sequence (P10646 29-304)

platelet TFPI = target: T4, platelet TFPI (Homo sapiens, UniProt P10646); assay: TF-FVIIa-catalysed FX activation inhibited by platelet TFPI; assay type: biochemical; conditions: 50 nM peptide
T4 construct: from tissue; donor PPP and PRP
T4 sequence (P10646 29-304): T2 sequence (P10646 29-304)

[4] = target: T5, plasma- and platelet TFPI (Homo sapiens, UniProt P10646); assay: Thrombin generation in platelet-poor and platelet-rich plasma; assay type: biochemical
T5 construct: from tissue; donor PPP and PRP
T5 sequence (P10646 29-304): T2 sequence (P10646 29-304)

fl-TFPI / LRP = target: T6, fl-TFPI / LRP (Homo sapiens, UniProt P10646); assay: BIAcore: fl-TFPI binding to LRP in presence of peptide; conditions: 1 μM peptide, 10 nM fl-TFPI
T6 sequence (P10646 29-304): T2 sequence (P10646 29-304)
T6 sequence (Q07954 852-1182 partner limits assumed): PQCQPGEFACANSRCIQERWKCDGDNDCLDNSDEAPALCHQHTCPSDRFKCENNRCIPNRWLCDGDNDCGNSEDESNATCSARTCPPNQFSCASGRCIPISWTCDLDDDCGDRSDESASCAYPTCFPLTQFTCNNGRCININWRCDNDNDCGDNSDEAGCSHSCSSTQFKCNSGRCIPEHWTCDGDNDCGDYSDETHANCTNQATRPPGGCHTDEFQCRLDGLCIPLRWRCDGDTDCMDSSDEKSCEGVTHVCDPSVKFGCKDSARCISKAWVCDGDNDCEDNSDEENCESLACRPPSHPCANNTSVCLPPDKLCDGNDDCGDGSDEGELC

fl-TFPI / ASGPR = target: T7, fl-TFPI / ASGPR (Homo sapiens, UniProt P10646); assay: BIAcore: fl-TFPI binding to ASGPR in presence of peptide; conditions: 1 μM peptide
T7 sequence (P10646 29-304): T2 sequence (P10646 29-304)

neutrophil elastase = assay: Proteolytic degradation of fl-TFPI by neutrophil elastase; assay type: biochemical, human; conditions: 1 μM peptide, 5 nM fl-TFPI, 5 nM elastase, up to 60 minutes
TFPI [5] = target: T3, TFPI; assay: FXa inhibition by TFPI in presence of Ca2+, phospholipid and protein S; assay type: biochemical; conditions: 50 nM peptide; PL+Ca2++protein S
Method: The effects of TFPI binding peptides on the anticoagulant activity of TFPI was tested in model systems (inhibition of FXa and TF-FVIIa-catalysed FX activation by TFPI) and in plasma (NP, PPP, PRP or TFPI-depleted plasma reconstituted with recombinant- or platelet-TFPI or platelets). […] […])/kobs in which At is absorbance at 405 nm at time t; A0 is initial absorbance at 405 nm; vs is final steady-state velocity; v0 is initial velocity; kobs is apparent rate constant for the transition from v0 to vs (FXa-TFPI to FXa-TFPI*). The values v0 and vs relative to rates of chromogenic substrate conversion by FXa in the absence of TFPI, represent the extent of loose and tight FXa-TFPI complex formation.

in vitro = conditions: human, plasma
TFPI [6] = assay: Extrinsic tenase inhibition assay; conditions: Table 19; 0.0625 nM TFPI
TFPI [7] = target: T3, TFPI; assay: Plasma-based thrombin generation assay (calibrated automated thrombography), human plasma; conditions: 50-100 nM peptide; 10 nM flTFPI, FVIII-inhibited plasma
[8] = Pharmacokinetics in C57Bl6 mice; assay type: in vivo, mouse; conditions: 10 mg/kg i.v., FIG. 31

pKd (human TFPI-1): 7.54
pEC50 (TFPI [1]; read-out: FXa Inhibition Assay EC50, Table 7 and text b402): 6.22
Compound: Ac-FQSKNNVFVFGYFERLRAKL-NH2 [JBT0297]

reduction of EC50 compared to JBT1857 (cynomolgus TFPI 1-160): approximately 200 fold
reduction of EC50 compared to the combination of JBT1837 and JBT1857 (cynomolgus TFPI 1-160): ~10 fold
concentration achieving full inhibition of TFPI (HUVEC TFPI): about 10 nM
enhancement of thrombin generation ([4]; PPP): 3-4 fold
concentration sufficient to fully inhibit TFPI ([4]; PPP and PRP): 5 to 10 nM
enhancement of thrombin generation ([4]; PRP with inhibitory FVIII antibody): 3 fold
fl-TFPI interaction with ASGPR in presence of peptide (fl-TFPI / ASGPR): interacted with ASGPR
blocking of TFPI (TFPI [5]): almost completely blocked TFPI
remaining at 24 h (in vitro): 54%
Extrinsic Tenase Assay Maximal inhibition (%) (TFPI [6]): 99%
Compound: Ac-FQSK[dP]NVHVDGYFERL[Aib]AKLSSSSSSSSSSSYYKWHCAMRDMKGTMTCVWVKF-NH2 (disulfide 37-48 (inferred)) [JBT2547]
Cynomolgus Monkey TFPI 1-160 Maximal inhibition (%) (cynomolgus TFPI 1-160; Table 20): 100%
restoration of coagulation with added full length TFPI [2]: fully restored normal coagulation of FVIII-inhibited whole blood
blocking of tracer JBT2271 binding after incubation (TFPI [3]): continued to block binding of the tracer to TFPI
blocking of platelet TFPI inhibition of TF-FVIIa-catalysed FX activation (platelet TFPI): completely blocked the anticoagulant activity of TFPI
fl-TFPI interaction with LRP in presence of peptide (fl-TFPI / LRP): higher response than that observed for TFPI complexed with single peptides
effect on proteolysis of fl-TFPI by neutrophil elastase (neutrophil elastase): proteolysis of fl-TFPI was blocked during the monitored time
inhibition of TFPI activity (TFPI [1]; all human TFPI concentrations tested (up to 10 nM)): 100%
compensation of added flTFPI (TFPI [7]): fully compensated the anticoagulant effect of 10 nM flTFPI

plasma concentration after intravenous administration [8]: rapidly cleared from the plasma
solubility (physchem): 920 µg/mL (≈ 392 µM)
Compound: CC(=O)N[C@@H](Cc1ccccc1)C(=O)N[C@@H](CCC(N)=O)C(=O)N[C@@H](CO)C(=O)N[C@@H](CCCCN)C(=O)NCC(=O)N[C@@H](CC(N)=O)C(=O)N[C@H](C(=O)N[C@@H](Cc1ccccc1)C(=O)N[C@H](C(=O)N[C@@H](CC(=O)O)C(=O)NCC(=O)N[C@@H](Cc1ccc(O)cc1)C(=O)N[C@@H](Cc1ccccc1)C(=O)N[C@@H](CCC(=O)O)C(=O)N[C@@H](CCCNC(=N)N)C(=O)N[C@@H](CC(C)C)C(=O)NC(C)(C)C(=O)N[C@@H](C)C(=O)N[C@@H](CCCCN)C(=O)N[C@@H](CC(C)C)C(N)=O)C(C)C)C(C)C [JBT0740]
